Measured values published in patent US7906308B2, “Phosphorylation and regulation of Akt/PKB by the rictor-mTOR complex” (Whitehead Institute for Biomedical Research, priority 2005, dated 2011).
Blank lines part the entries; values can stand above or below the compound they belong to.

Assays:
[1] = biological target: T1, rictor-mTOR complex (Homo sapiens, UniProt P42345); test: rictor-mTOR immunoprecipitate kinase assay with Akt1/PKB1 as substrate; assay type: biochemical; settings: immunoprecipitates from HEK-293T or HeLa cells; FIG. 3C
T1 construct: Immunoprecipitates prepared from lysates of HEK-293T or HeLa cells with the indicated antibodies; endogenous in cells; host or cells: A1: HEK-293T or HeLa; A11: PC3, BJAB, Jurkat, HeLa, H460 (treated with rapamycin before lysis)
Protocol: For all immunoprecipitation experiments the lysis buffer contained 0.3% CHAPS instead of 1% Triton in order to preserve the integrity of the mTOR complexes (D. D. Sarbassov et al., Curr Biol 14, 1296 (2004); D.-H. Kim et al., Cell 110, 163 (2002)). 4 μg of the indicated antibodies were added to the cleared cellular lysates and incubated with rotation for 90-min. 25 μl of a 50% slurry of protein G-sepharose was then added and the incubation continued for 1 h. Immunoprecipitates captured with protein G-sepharose were washed four times with the CHAPS Lysis Buffer and once with the rictor-mTOR kinase buffer (25 mM Hepes pH 7.5, 100 mM potassium acetate, 1 mM MgCl2). […] After a quick spin, the supernatant was removed from the protein G-sepharose and analyzed by immunoblotting (D.-H. Kim et al., Cell 110, 163 (2002)). […] Supernatants were used in the Akt1/PKB1 kinase assay as described below and were also analyzed by immunoblotting. The pelleted G-sepharose beads were also analyzed by immunoblotting to determine the levels of rictor, mTOR, and raptor in the immunoprecipitates. Akt1/PKB1 kinase activity was determined using Crosstide (Upstate Biotechnology, #12-331) as substrate as recommended by the manufacturers protocol. […] After the washing, the P81 squares were dried and radioactivity read in a scintillation counter.

[2] = system: PC3 cells; test: apoptosis by DNA fragmentation (Cell Death Detection Elisa); settings: PC3 cells expressing wild-type or S473D Akt1/PKB1, 100 μM
Protocol: Cells were selected for one week in 200 μg/ml hygromycin before use. 15,000 PC3 (MSCV controls, WT Akt1/PKB1, or 473D Akt1/PKB1) cells were seeded in the wells of a 96 well-plate and cultured overnight. The next day the cells were rinsed once in serum-free medium and then cultured for 48 hrs in serum-free medium containing either DMSO (the small molecule vehicle), 100 nM rapamycin, 100 μM indole-3-carbinol, or both rapamycin and indole-3-carbinol. When indole-3-carbinol was used, 0.002% BSA was added to the medium. After 48 hours in culture all cells (adherent and floating) were processed with the Cell Death Detection Elisa plus (Roche, cat# 1774425) as described by the manufacturer.

[3] = system: PC3 cells; settings: literature (Chinni & Sarkar); cited from earlier work
[4] = tissue penetration with phospho-S6 as marker; assay type: in vivo, mice; settings: 10 mg/kg intraperitoneal daily
Protocol: (§1) 1 mg of rapamycin was dissolved in 20 μl of ethanol, which was then diluted with Ringer's saline solution to a final concentration of 1 mg/ml directly before use. Three-month old male C57BL/6NTac (Taconic) mice were administered daily intraperitioneal injections of 10 mg/kg rapamycin or the drug vehicle for 7 days. Mice were then euthanized with CO2, organs were harvested into RIPA buffer, and homogenized with mechanical disruption followed by sonication. […] The experiment was repeated twice with similar results.

[5] = biological target: mTORC2 assembly (Homo sapiens, UniProt P42345+P62942); test: 35S pulse-chase of newly synthesized mTOR bound to rictor; assay type: cell-based; settings: 100 nM
mTORC2 assembly, sequence (P62942 2-108 limits assumed, other chains not shown): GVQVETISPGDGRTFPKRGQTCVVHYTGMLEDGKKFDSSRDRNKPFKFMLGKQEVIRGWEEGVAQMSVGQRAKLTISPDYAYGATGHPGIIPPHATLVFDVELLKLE
Protocol: 4×10^6 Hela or PC3 cells growing in 100 mm dishes were treated with 100 nM rapamycin or vehicle control for 20 minutes, rinsed once in methionine- and cysteine-free DMEM, and then incubated in 3.5 ml of the same medium containing 10% dialyzed serum and 0.1 mCi/ml of ^35S-methionine/^35S-cysteine (Express Protein Labeling Mix, Perkin Elmer). After allowing the cells to label for 30 minutes, the cells were washed once in the normal culture medium and incubated in fresh medium for the periods of time indicated in the figures. […] Quantification was performed using images acquired with a phosphoimager.

[6] = Morrisett et al. 2003; cited from earlier work
[7] = food intake during 7-day treatment; assay type: in vivo, mice; settings: 10 mg/kg daily
Protocol: as §1

[8] = biological target: rictor (UniProt Q6R327)
[9] = biological target: full length, wild-type Akt1/PKB1 (inactive, Upstate Biotechnology #14-279) (UniProt P31749)
full length, wild-type Akt1/PKB1 (inactive, Upstate Biotechnology #14-279), sequence (P31749 whole entry, looked up, tested part not stated): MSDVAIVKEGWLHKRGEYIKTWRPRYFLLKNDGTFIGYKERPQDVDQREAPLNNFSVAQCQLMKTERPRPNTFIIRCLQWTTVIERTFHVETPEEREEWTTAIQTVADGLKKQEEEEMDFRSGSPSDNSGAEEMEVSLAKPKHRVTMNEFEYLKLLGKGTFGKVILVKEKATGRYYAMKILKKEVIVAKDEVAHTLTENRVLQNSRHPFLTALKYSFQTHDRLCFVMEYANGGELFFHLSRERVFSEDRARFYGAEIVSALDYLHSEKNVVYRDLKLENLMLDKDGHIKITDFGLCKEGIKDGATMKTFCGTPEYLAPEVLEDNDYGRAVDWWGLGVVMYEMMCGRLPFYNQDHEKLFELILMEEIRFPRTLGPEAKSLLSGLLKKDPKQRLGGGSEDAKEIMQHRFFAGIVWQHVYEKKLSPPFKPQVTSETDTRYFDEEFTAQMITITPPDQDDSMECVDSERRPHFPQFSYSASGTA

Compound: CN[C@@H]1C[C@H]2O[C@@](C)([C@@H]1OC)n1c3ccccc3c3c4c(c5c6ccccc6n2c5c31)C(=O)NC4 [Staurosporine, staurosporine]
in vitro phosphorylation of Akt/PKB by rictor-mTOR [1]: did not decrease

Compound: OCc1c[nH]c2ccccc12 [indole-3-carbinol]
induction of apoptosis [2]: decreased the capacity of indole-3-carbinol to induce apoptosis | apoptosis in PC3 cells [3]: known to induce apoptosis

interaction between newly-synthesized mTOR and rictor prevented ([5]; HeLa cells): 80% | interaction between newly-synthesized mTOR and rictor prevented ([5]; PC3 cells): 100% | food intake versus vehicle [7]: ate similar amounts
Compound: CO[C@H]1C[C@@H]2CC[C@@H](C)[C@@](O)(O2)C(=O)C(=O)N2CCCC[C@H]2C(=O)O[C@H]([C@H](C)C[C@@H]2CC[C@@H](O)[C@H](OC)C2)CC(=O)[C@H](C)/C=C(\C)[C@@H](O)[C@@H](OC)C(=O)[C@H](C)C[C@H](C)/C=C/C=C/C=C/1C [rapamycin]
tissue penetration [4]: penetrates all major tissues except the brain | side effect in patients [6]: hyperlipidemia commonly seen

Compound: mTOR (mammalian Target of Rapamycin kinase)
in vitro kinase activity of rictor immunoprecipitates towards Akt/PKB [8]: in HeLa and H460 cells treated with rapamycin for 24 hours, a greater amount of mTOR remained bound to rictor and this correlated with a higher level of kinase activity towards Akt/PKB | in vitro phosphorylation of Akt/PKB by immunoprecipitates [8]: the raptor immunoprecipitates also contain mTOR but did not phosphorylate Akt/PKB

Compound: rictor-mTOR complex
phosphorylation of S473 of Akt/PKB in vitro (immunoblot) [9]: Rictor-mTOR complexes isolated from HEK-293T or HeLa phosphorylated S473 but not T308 of full length, wild-type Akt/PKB in vitro
